Read-outs that look alike come from different tables or passages of the source.
What was measured:
ZR-75-1 = test: Caspase cascade activation (Ac-DEVD-R110 fluorogenic substrate) in ZR-75-1 cells; format: cell-based, Human; conditions: 24 h incubation; for Caspase Activity Ratio: ratio of net RFU to that of control samples; for EC50: 0.16 to 10 μM final, read-out: Caspase potency EC50
Protocol: (§1) Human breast cancer cell lines T-47D and ZR-75-1 were grown according to media component mixtures designated by American Type Culture Collection +10% FCS (Invitrogen Corporation), in a 5% CO2-95% humidity incubator at 37° C. T-47D and ZR-75-1 cells were maintained at a cell density between 30 and 80% confluency and for HL-60 at a cell density of 0.1 to 0.6×10^6 cells/mL. Cells were harvested at 600×g and resuspended at 0.65×10^6 cells/mL into appropriate media +10% FCS. An aliquot of 45 μL of cells was added to a well of a 96-well microtiter plate containing 5 μL of a 10% DMSO in RPMI-1640 media solution containing 1.6 to 100 μM of N,N′-bis-(3-trifluoromethyl-phenyl)-2-(4-isopropyl-benzylidene)-malonamide or other test compound (0.16 to 10 μM final). An aliquot of 45 μL of cells was added to a well of a 96-well microtiter plate containing 5 μL of a 10% DMSO in RPMI-1640 media solution without test compound as the control sample. The samples were mixed by agitation and then incubated at 37° C. for 24 h in a 5% CO2-95% humidity incubator. After incubation, the samples were removed from the incubator and […] of a solution containing 20 μM of N-(Ac-DEVD)-N′-ethoxycarbonyl-R110 fluorogenic substrate (SEQ ID NO:1) (Cytovia, Inc.; U.S. Pat. No. 6,335,429), 20% sucrose (Sigma), 20 mM DTT (Sigma), 200 mM NaCl (Sigma), 40 mM Na PIPES buffer pH 7.2 (Sigma), and 500 μg/mL lysolecithin (Calbiochem) was added. The samples were mixed by agitation and incubated at room temperature. Using a fluorescent plate reader (Model 1420 Wallac Instruments), an initial reading (T=0) was made approximately 1-2 min after addition of the substrate solution, employing excitation at 485 nm and emission at 530 nm, to determine the background fluorescence of the control sample. After approximately 3 h of incubation, the samples were read for fluorescence as above (T=3 h).
(§2) The relative Fluorescence Unit values (RFU) were used to calculate the sample readings as follows: RFU(T=3h)−Control RFU(T=0)=Net RFU(T=3h)
(§3) The activity of caspase cascade activation was determined by the ratio of the net RFU value for N,N′-bis-(3-trifluoromethyl-phenyl)-2-(4-isopropyl-benzylidene)-malonamide to that of control samples. The EC50 (nM) was determined by a sigmoidal dose-response calculation (Prism 2.0, GraphPad Software Inc.).

T-47D [1] = test: Caspase cascade activation (Ac-DEVD-R110 fluorogenic substrate) in T-47D cells; format: cell-based, Human; conditions: 24 h incubation; for Caspase Activity Ratio: ratio of net RFU to that of control samples; for EC50: 0.16 to 10 μM final, read-out: Caspase potency EC50
Protocol: as §1, §2, §3

DLD-1 = test: Inhibition of cell proliferation (GI50, CellTiter 96 AQueous One) in DLD-1 cells; format: cell-based; conditions: Homo sapiens, 48 h incubation, read-out: GI50 (dose for 50% inhibition of cell proliferation)
Protocol: (§4) T-47D and DLD-1 cells were grown and harvested as in Example 105. An aliquot of 90 μL of cells (2.2×10^4 cells/mL) was added to a well of a 96-well microtiter plate containing 10 μl of a 10% DMSO in RPMI-1640 media solution containing 1 nM to 100 μM of N,N′-bis-(3-trifluoromethyl-phenyl)-2-(4-isopropyl-benzylidene)-malonamide (0.1 nM to 10 μM final). An aliquot of 90 μL of cells was added to a well of a 96-well microtiter plate containing 10 μL of a 10% DMSO in RPMI-1640 media solution without compound as the control sample for maximal cell proliferation (AMax). The samples were mixed by agitation and then incubated at 37° C. for 48 h in a 5% CO2-95% humidity incubator. After incubation, the samples were removed from the incubator and 20 μL of CellTiter 96 AQUEOUS One Solution Cell Proliferation™ reagent (Promega) was added. The samples were mixed by agitation and incubated at 37° C. for 2-4 h in a 5% CO2-95% humidity incubator. Using an absorbance plate reader (Model 1420 Wallac Instruments), an initial reading (T=0) was made approximately 1-2 min after addition of the solution, employing absorbance at 490 nm. This determines the possible background absorbance of the test compounds. No absorbance for N,N′-bis-(3-trifluoromethyl-phenyl)-2-(4-isopropyl-benzylidene)-malonamide was found at 490 nm. After the 2-4 h incubation, the samples were read for absorbance as above (ATest).
(§5) Baseline for GI50 (dose for 50% inhibition of cell proliferation) of initial cell numbers were determined by adding an aliquot of 90 μL of cells or 90 μL of media, respectively, to wells of a 96-well microtiter plate containing 10 μL of a 10% DMSO in RPMI-1640 media solution. The samples were mixed by agitation and then incubated at 37° C. for 0.5 h in a 5% CO2-95% humidity incubator. After incubation, the samples were removed from the incubator and 20 μL of CellTiter 96 AQUEOUS One Solution Cell Proliferation™ reagent (Promega) was added. The samples were mixed by agitation and incubated at 37° C. for 2-4 h in a 5% CO2-95% humidity incubator. Absorbance was read as above, (AStart) defining absorbance for initial cell number used as baseline in GI50 determinations.
(§6) GI50 (dose for 50% inhibition of cell proliferation) is the concentration where [(ATest−AStart)/(AMax−AStart)]=0.5.

T-47D [2] = test: Inhibition of cell proliferation (GI50, CellTiter 96 AQueous One) in T-47D cells; format: cell-based; conditions: Homo sapiens, T47D, 48 h incubation, read-out: GI50 (dose for 50% inhibition of cell proliferation)
Protocol: as §4, §5, §6

Row | SMILES | EC50 (ZR-75-1; Homo sapiens) [nM] | EC50 (T-47D [1]; Homo sapiens, T47D) [nM] | GI50 (DLD-1) [nM] | GI50 (T-47D [2]) [nM] | EC50 (ZR-75-1) [nM] | EC50 (T-47D [1]) [nM] | Caspase Activity Ratio (ZR-75-1) | Caspase Activity Ratio (T-47D [1])
1 | CCc1ccc(C=C(C(=O)Nc2cccc(C(F)(F)F)c2)C(=O)Nc2cccc(C(F)(F)F)c2)cc1 [Example 26, N,N′-Bis-(3-trifluoromethyl-phenyl)-2-(4-ethyl-benzylidene)-malonamide] |  |  | 1650 | 666 |  |  |  | 
2 | CC(C)c1ccc(C=C(C(=O)Nc2cccc(Br)c2)C(=O)Nc2cccc(Br)c2)cc1 [Example 20, N,N′-Bis-(3-bromo-phenyl)-2-(4-isopropyl-benzylidene)-malonamide] |  |  | 1660 | 1520 |  |  |  | 
3 | O=C(Nc1cccc(C(F)(F)F)c1)C(=Cc1cnc[nH]1)C(=O)Nc1cccc(C(F)(F)F)c1 [Example 16, N,N′-Bis-(3-trifluoromethyl-phenyl)-2-(3H-imidazol-4-yl-methylene)-malonamide] |  |  | 1680 | 1720 |  |  |  | 
4 | CC(C)c1ccc(C=C(C(=O)Nc2cccc(O)c2)C(=O)Nc2cccc(O)c2)cc1 [Example 18, N,N′-Bis-(3-hydroxy-phenyl)-2-(4-isopropyl-benzylidene)-malonamide] |  |  | 1650 | 467 |  |  |  | 
5 | CC(C)c1ccc(C=C(C(=O)Nc2ccc(C(F)(F)F)cc2)C(=O)Nc2ccc(C(F)(F)F)cc2)cc1 [Example 12, N,N′-Bis-(4-trifluoromethyl-phenyl)-2-(4-isopropyl-benzylidene)-malonamide] | > 10000 | > 10000 |  |  |  |  | 1 | 1
6 | COc1ccc(C=C(C(=O)Nc2cccc(C(F)(F)F)c2)C(=O)Nc2cccc(C(F)(F)F)c2)c(OC)c1 [Example 6, N,N′-Bis-(3-trifluoromethyl-phenyl)-2-(2,4-dimethoxy-benzylidene)-malonamide] | > 10000 | > 10000 |  |  |  |  | 1 | 1
7 | CC(C)c1ccc(C=C(C(=O)Nc2ccccc2C(F)(F)F)C(=O)Nc2ccccc2C(F)(F)F)cc1 [Example 11, N,N′-Bis-(2-trifluoromethyl-phenyl)-2-(4-isopropyl-benzylidene)-malonamide] | > 10000 | > 10000 |  |  |  |  | 1 | 1
8 | O=C(Nc1cccc(C(F)(F)F)c1)C(=Cc1ccco1)C(=O)Nc1cccc(C(F)(F)F)c1 [Example 4, N,N′-Bis-(3-trifluoromethyl-phenyl)-2-furan-2-yl-methylene-malonamide] |  |  |  |  | 5600 | 5750 | 6 | 28

The next lines start with results.

Row | EC50 (ZR-75-1; Homo sapiens) [nM] | EC50 (T-47D [1]; Homo sapiens, T47D) [nM] | GI50 (DLD-1) [nM] | GI50 (T-47D [2]) [nM] | EC50 (ZR-75-1) [nM] | EC50 (T-47D [1]) [nM] | SMILES | Caspase Activity Ratio (ZR-75-1) | Caspase Activity Ratio (T-47D [1])
9 | 5500 | 2890 |  |  |  |  | COc1cccc(NC(=O)C(=Cc2ccc(C(C)C)cc2)C(=O)Nc2cccc(OC)c2)c1 [Example 13, N,N′-Bis-(3-methoxy-phenyl)-2-(4-isopropyl-benzylidene)-malonamide] | 4.5 | 21
10 | 1700 | > 10000 |  |  |  |  | CC(C)c1ccc(CC(C(=O)Nc2cccc(C(F)(F)F)c2)C(=O)Nc2cccc(C(F)(F)F)c2)cc1 [Example 7, N,N′-Bis-(3-trifluoromethyl-phenyl)-2-(4-isopropyl-benzyl)-malonamide] | 2.2 | 1
11 | 5500 | 2850 |  |  |  |  | COc1cccc(NC(=O)C(=Cc2ccc(C(F)(F)F)cc2)C(=O)Nc2cccc(OC)c2)c1 [Example 1, N,N′-Bis-(3-methoxy-phenyl)-2-(4-trifluoromethyl-benzylidene)-malonamide] | 14 | 28
12 | 4500 | 5790 |  |  |  |  | CC(C)c1ccc(C=C(C(=O)Nc2ccccc2)C(=O)Nc2ccccc2)cc1 [Example 10, N,N′-Diphenyl-2-(4-isopropyl-benzylidene)-malonamide] | 2.5 | 16
13 | 4600 | 4050 | 1530 | 1570 |  |  | O=C(Nc1cccc(C(F)(F)F)c1)C(=Cc1ccncc1)C(=O)Nc1cccc(C(F)(F)F)c1 [Example 8, N,N′-Bis-(3-trifluoromethyl-phenyl)-2-(4-pyridyl-methylene)-malonamide] | 9.5 | 17
14 | 1980 | 738 | 1230 | 1190 |  |  | CC(C)c1ccc(C=C(C(=O)Nc2cccc(Cl)c2)C(=O)Nc2cccc(Cl)c2)cc1 [Example 14, N,N′-Bis-(3-chloro-phenyl)-2-(4-isopropyl-benzylidene)-malonamide] | 7.2 | 21
15 | 906 | 647 | 200 | 150 |  |  | O=C(Nc1cccc(C(F)(F)F)c1)C(=Cc1ccc(Cl)cc1Cl)C(=O)Nc1cccc(C(F)(F)F)c1 [Example 2, N,N′-Bis-(3-trifluoromethyl-phenyl)-2-(2,4-dichloro-benzylidene)-malonamide] | 18 | 16
16 | 2790 | 1380 | 1340 | 46 |  |  | O=C(Nc1cccc(C(F)(F)F)c1)C(=Cc1ccccc1)C(=O)Nc1cccc(C(F)(F)F)c1 [Example 15, N,N′-Bis-(3-trifluoromethyl-phenyl)-2-benzylidene-malonamide] | 6 | 16
17 | 5400 | 1900 |  |  |  |  | Cc1ccc(C=C(C(=O)Nc2cccc(C(F)(F)F)c2)C(=O)Nc2cccc(C(F)(F)F)c2)c(C)c1 [Example 5, N,N′-Bis-(3-trifluoromethyl-phenyl)-2-(2,4-dimethyl-benzylidene)-malonamide] | 26 | 30

From patent US20070043076A1, “Substituted 2-arylmethylene-n-aryl-n'aryl-malonamides and analogs as activators of caspases and inducers of apoptosis” (priority 2003, published 2007)
